Source: article PMC3997483, “Aminostyrylbenzofuran Directly Reduces Oligomeric Amyloid-β and Reverses Cognitive Deficits in Alzheimer Transgenic Mice” (PLoS ONE, 2014)

Key:
[1] = Metabolic stability in liver microsomes; type: in vitro ADME; conditions: mouse liver microsomes
[2] = Pharmacokinetics IV/PO in monkeys; type: in vivo, cynomolgus monkeys; conditions: for AUC(0-t): read-out: AUC0–24h
Experimental: Pharmacokinetics profile of KMS88009 was obtained using ICR mice, SD rats, beagle dogs and cynomolgus monkeys. Animals were fasted overnight before KMS88009 administration. Mice were divided into 2 groups to receive KMS88009 as a single dose of 2.1 mg/kg intravenous (IV) bolus or 10 mg/kg orally (PO) by gavage. Additionally, KMS88009 was administered orally to estimate the BBB penetration in mice (10, 30 and 100 mg/kg). […] Dog received KMS88009 either as an IV bolus (1 mg/kg) via the great saphenous vein or by oral gavage (4 mg/kg). […] Vehicle for IV and PO administration was DMSO/tween-20/saline (3.3∶19.8∶79.6). […]. Brain samples were weighed and Daunce-homogenized in 10-fold volume of ice-chilled 4% bovine serum albumin (BSA) solution at room temperature. Plasma and brain homogenates were kept frozen at −70°C until analysis. The levels of KMS88009 were determined by the LC-MS/MS analysis. Pharmacokinetic parameters, time to the maximum concentration (Tmax), maximum concentration (Cmax), elimination half-life (T1/2), volume of distribution (Vd), clearance (Cl) and mean residual time (MRT), of KMS88009 were calculated based on plasma concentration-time data by a non-compartmental method using WinNonlin Version 5.2 (Pharsight, USA). Area under the curve from 0 to 24 hr (AUC0-24h) and area under the curve from 0 to infinity (AUCINF) were obtained by linear and log linear trapezoidal summations.

Aβ oligomers = assay: Western blot (6E10) of hippocampus soluble fraction, prophylactic trial; type: in vivo, mouse; conditions: soluble fraction of hippocampal homogenates, TG mice
[3] = Plasma and brain pharmacokinetics (BBB penetration) after PO in mice; type: in vivo; conditions: for AUC(0-t): read-out: AUC0–24h
Experimental: Pharmacokinetics profile of KMS88009 was obtained using ICR mice, SD rats, beagle dogs and cynomolgus monkeys. Animals were fasted overnight before KMS88009 administration. Mice were divided into 2 groups to receive KMS88009 as a single dose of 2.1 mg/kg intravenous (IV) bolus or 10 mg/kg orally (PO) by gavage. Additionally, KMS88009 was administered orally to estimate the BBB penetration in mice (10, 30 and 100 mg/kg). […] Dog received KMS88009 either as an IV bolus (1 mg/kg) via the great saphenous vein or by oral gavage (4 mg/kg). KMS88009 was administrated to monkeys as an IV bolus (1 mg/kg) via the femoral vein or by oral gavage (4 mg/kg). Vehicle for IV and PO administration was DMSO/tween-20/saline (3.3∶19.8∶[…]). […]. Brain samples were weighed and Daunce-homogenized in 10-fold volume of ice-chilled 4% bovine serum albumin (BSA) solution at room temperature. Plasma and brain homogenates were kept frozen at −70°C until analysis. The levels of KMS88009 were determined by the LC-MS/MS analysis. Pharmacokinetic parameters, time to the maximum concentration (Tmax), maximum concentration (Cmax), elimination half-life (T1/2), volume of distribution (Vd), clearance (Cl) and mean residual time (MRT), of KMS88009 were calculated based on plasma concentration-time data by a non-compartmental method using WinNonlin Version 5.2 (Pharsight, USA). Area under the curve from 0 to 24 hr (AUC0-24h) and area under the curve from 0 to infinity (AUCINF) were obtained by linear and log linear trapezoidal summations.

[4] = cynomolgus monkey, plasma, monkey IV 0.77 mg/kg
[5] = cynomolgus monkey, plasma, monkey PO 5.6 mg/kg
[6] = cynomolgus monkey, monkey IV 0.77 mg/kg, plasma
[7] = cynomolgus monkey, monkey PO 5.6 mg/kg, plasma
[8] = ICR, mouse, brain, mice PO 10 mg/kg
[9] = ICR, mouse, brain, mice PO 30 mg/kg
[10] = ICR, mouse, brain, mice PO 100 mg/kg
[11] = ICR, mouse, plasma, mice PO 10 mg/kg
[12] = ICR, mouse, plasma, mice PO 30 mg/kg
[13] = ICR, mouse, plasma, mice PO 100 mg/kg

In the case of `COc1ccc2cc(C=Cc3ccc(N(C)C)cc3)oc2c1` [KMS88009, 6-methoxy-2-(4-dimethylaminostyryl) benzofuran], the half-life at 5 µM [1] is reported as 65.3 ± 0.6 min, the remaining at 1 h, 5 µM ([1]; read-out: Remaining % of parent molecule at 60 min.) is reported as 52.4 ± 0.3% and the MRT last [2, 4] is reported as 3.6 ± 0.5 h. For the same molecule, the Vd [2, 4] was 4.4 ± 1.1 L/kg, the clearance [2, 4] was 8.33 mL/min/kg and the half-life [2, 4] was 348 ± 48 min. It also gave an MRT last [2, 5] of 5.9 ± 0.6 h, a Tmax [2, 5] of 2.7 ± 1.2 h and a half-life [2, 5] of 258 ± 12 min. For the same molecule, the AUC(0-inf) [2, 6] was 1590 ± 576 ng·h/mL, the AUC(0-t) [2, 6] was 1540 ± 550 ng·h/mL and the AUC(0-inf) [2, 7] was 3920 ± 1480 ng·h/mL. For the same molecule, the Cmax [2, 7] was 505 ± 78.3 ng/mL, the AUC(0-t) [2, 7] was 3810 ± 1430 ng·h/mL and the BA ([2]; monkey PO 5.6 mg/kg vs IV 0.77 mg/kg) was 34.1%. For the same molecule, the “Aβ oligomer species affected (western blot)” value (Aβ oligomers) was “prevented the accumulation of low-molecular-weight (3-mer) and high-molecular-weight (55 to 180 kDa) Aβ oligomeric species”, the Kp ([3]; ICR, mouse, brain, mice, PO, read-out: Level (AUC0–24h) in the brain relative to plasma) was > 12 and the Cmax [3, 8] was 6370 ng/g. The Tmax [3, 8] was 2 h, the Cmax [3, 9] was 17800 ng/g and the Tmax [3, 9] was 4 h. It also gave a Cmax [3, 10] of 23300 ng/g, a Tmax [3, 10] of 10 h and a Cmax [3, 11] of 744 ng/mL. It also gave a Tmax [3, 11] of 1 h, an AUC(0-t) [3, 11] of 4570 ng·h/mL and a Cmax [3, 12] of 1640 ng/mL. For the same molecule, the Tmax [3, 12] was 1 h, the AUC(0-t) [3, 12] was 13400 ng·h/mL and the Cmax [3, 13] was 2710 ng/mL. For the same molecule, the Tmax [3, 13] was 2 h, the AUC(0-t) [3, 13] was 30500 ng·h/mL and the “AUC0–24h” value ([3]; brain, mice PO 10 mg/kg) was 55395.5 ng·h/g. The “AUC0–24h” value ([3]; brain, mice PO 30 mg/kg) was 205268.3 ng·h/g and the “AUC0–24h” value ([3]; brain, mice PO 100 mg/kg) was 367538.5 ng·h/g.
